The source of these data is patent publication US5110796A, “Prophylactic and therapeutic agents for cataracts” (priority 1988, dated 1992).

Structures are written as SMILES. Counter-ions that a name gives are not always drawn.

One data set deals with mice. To be noted: intraperitoneal injection to mice.
Another data set deals with X-ray induced cataracts. Here is the method: Four-week old SLC Wistar rats are divided into three groups having ten animals in each group; the first group is a normal control group. The second group is an X-ray irradiated control group which is administered intraperitoneally 1 ml/kg of physiological saline solution three times a week after X-ray irradiation. For the third group, 20 mg/kg of glutathione monoisopropyl ester sulfate is administered intraperitoneally three times a week after X-ray irradiation. X-ray irradiation is carried out by irradiating the cephalic portion of conscious rats at 1,000 rad.
After X-ray irradiation, the lens are monitored every two weeks for opacity with a slit lamp. […] When the conditions of lens of the X-ray irradiated control group (the second group) reaches level IV or more (at 28 weeks), the tests are finished. Then the lens are extracted and measured for biochemical parameters [amounts of nonprotein-SH (Ellman's method), amounts of Na^+ /K^+ and Ca^++ (Atomic absorption method)].

For `CC(C)OC(=O)CNC(=O)[C@H](CS)NC(=O)CC[C@H](N)C(=O)O` [glutathione monoisopropyl ester sulfate, isopropylγ-L-glutamyl-L-cysteinylglycinate], in the data set on mice, the “acute toxicity (LD50)” value was “approximately 5.3 g/kg”. For the same molecule, the “share of the group with II grade lens score (seven grades I to VII, clear to opacitas)” value with X-ray induced cataracts (20 mg/kg i.p. three times a week after 1,000 rad X-ray irradiation, 28 weeks, in the X-ray irradiated control the V grade is greater than 50%) is recorded as “greater than 50%”. The “inhibiting action of cataracts” value in the data set with X-ray induced cataracts (20 mg/kg i.p. three times a week after X-ray irradiation, rats) is recorded as “outstanding inhibiting action of cataracts”.
